Experimental data from ChEMBL document CHEMBL5380807, “Imidazo[1,2-a]Pyridine Derivatives as Novel Dual-Target Inhibitors of ABCB1 and ABCG2 for Reversing Multidrug Resistance” (J Med Chem, 2023).
Activity calls are given as the source filed them. The calls are words filed in the database; no cut-off is given here.

How the values were obtained:
[1] = Cytotoxicity against human K562/A02 cells overexpressing ABCB1 assessed as decrease in cell survival rate incubated for 72 hrs by MTS assay; type: toxicity, cell-based
K562 [2] = experiment: Antitumor activity against human K562 cells xenografted in BALB/c mouse assessed as tumor growth inhibition at 1 mg/kg, ip BW for 14 days; type: functional, organism-based; details: time 14.0 day
K562 [3] = experiment: Antitumor activity against human K562 cells xenografted in BALB/c mouse assessed as tumor growth inhibition at 1 mg/kg, ip BW for 14 days in presence of verapamil; type: functional, organism-based; details: time 14.0 day
K562 [4] = experiment: (§1) Antitumor activity against human K562 cells xenografted in BALB/c mouse assessed as tumor growth inhibition at 1 mg/kg, ip BW for 14 days in presence of N-(4-(3-((4-Phenyipiperazin-1-yl)methyl)imidazo[l,2-a]pyridin-2-yl)phenyl)-2-(4-(4-(trifluoromethoxy)phenyl)piperazin-1-yl)acetamide; type: functional, organism-based; details: time 14.0 day
K562/A02 [5] = experiment: as §1, with “K562/A02” for “K562”, “cells overexpressing ABCB1” for “cells”; type: functional, organism-based; details: time 14.0 day
K562/A02 [6] = experiment: Antitumor activity against human K562/A02 cells overexpressing ABCB1 xenografted in BALB/c mouse assessed as tumor growth inhibition at 1 mg/kg, ip BW for 14 days; type: functional, organism-based; details: time 14.0 day
[7] = Toxicity in BALB/c mouse xenografted with human K562 cells assessed as body weight loss at 1 mg/kg, ip BW for 14 days; type: organism-based; details: in vivo, 336 h, time 14 day
[8] = Toxicity in BALB/c mouse xenografted with human K562 cells assessed as body weight loss at 1 mg/kg, ip BW for 14 days in presence of verapamil; type: organism-based; details: in vivo, 336 h, time 14 day
[9] = Toxicity in BALB/c mouse xenografted with human K562 cells assessed as body weight loss at 1 mg/kg, ip BW for 14 days in presence of N-(4-(3-((4-Phenyipiperazin-1-yl)methyl)imidazo[l,2-a]pyridin-2-yl)phenyl)-2-(4-(4-(trifluoromethoxy)phenyl)piperazin-1-yl)acetamide; type: organism-based; details: in vivo, 336 h, time 14 day
[10] = Toxicity in BALB/c mouse xenografted with human K562/A02 cells overexpressing ABCB1 assessed as body weight loss at 1 mg/kg, ip BW for 14 days; type: organism-based; details: in vivo, 336 h, time 14 day
[11] = Toxicity in BALB/c mouse xenografted with human K562/A02 cells overexpressing ABCB1 assessed as body weight loss at 1 mg/kg, ip BW for 14 days in presence of verapamil; type: organism-based; details: in vivo, 336 h, time 14 day
[12] = Toxicity in BALB/c mouse xenografted with human K562/A02 cells overexpressing ABCB1 assessed as body weight loss at 1 mg/kg, ip BW for 14 days in presence of N-(4-(3-((4-Phenyipiperazin-1-yl)methyl)imidazo[l,2-a]pyridin-2-yl)phenyl)-2-(4-(4-(trifluoromethoxy)phenyl)piperazin-1-yl)acetamide; type: organism-based; details: in vivo, 336 h, time 14 day

In the case of `COc1cccc2c1C(=O)c1c(O)c3c(c(O)c1C2=O)C[C@@](O)(C(=O)CO)C[C@@H]3O[C@H]1C[C@H](N)[C@H](O)[C@H](C)O1.Cl` [DOXORUBICIN HYDROCHLORIDE], the IC50 at 72 h [1] is reported as 58.6 µM, the Activity (K562 [2]) is reported as “Active” and the Activity (K562 [3]) is reported as “inactive”. For the same molecule, the Activity (K562 [4]) was “inactive”, the Activity (K562/A02 [5]) was “Active” and the Activity (K562/A02 [6]) was “inactive”. For the same molecule, the Activity [7] was “Toxic”, the Activity [8] was “Non-Toxic” and the Activity [9] was “Non-Toxic”. The Activity [10] was “Non-Toxic”, the Activity [11] was “Non-Toxic” and the Activity [12] was “Non-Toxic”.
